The structures appear in SMILES notation.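 96-well plates; 48 h exposure; 5 concentrations. Endpoints by linear interpolation between flanking doses. Not reached: highest tested concentration assigned. GI50: concentration for 50% inhibition of growth.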 The source made the active and inactive calls. No stated cut-off is given here; in the data, active = GI50 up to about 1.1 µM and inactive = higher.

Common to all, as to test: inhibition of tumour cell growth, NCI panel, 48 h
The test system of experiment [1] is 786-0.
For experiment [2], the system named is A498.
Experiment [3] deals with CCRF-CEM.
Experiment [4] deals with HCT-15.
The test system of experiment [5] is M14.
In experiment [6] the test system is MOLT-4.
In experiment [7] the test system is NCI-H226.
Experiment [8] concerns NCI-H23.
The subject of experiment [9] is NCI-H522.
Experiment [10] concerns OVCAR-4.
Experiment [11] relates to OVCAR-5.
In experiment [12] the test system is SF-539.
Experiment [13] has as its system SN12C.
For experiment [14], the system named is SNB-75.
Experiment [15] relates to TK-10.

As to `CN(C)c1n/c(=N/c2ncn[nH]2)ss1`, the GI50 is > 100 µM (inactive) in experiment [1]; > 100 µM (inactive) in experiment [2]; > 100 µM (inactive) in [3]; over 100 µM in [4]; > 100 µM (inactive) in experiment [5]; > 100 µM (inactive) in experiment [6]. In addition, the GI50 in experiment [7], in experiment [8], in experiment [9], in experiment [10], in experiment [11] and in experiment [12] was > 100 µM (inactive) throughout. The GI50 in experiment [13], in experiment [14] and in experiment [15] was > 100 µM (inactive) each time.

As for `CN(C)CCNC(=O)c1cccc2ncc(-c3ccccc3)nc12`, the GI50 in experiment [1] is 10 µM (inactive); in experiment [2], 6.15 µM (inactive); in experiment [3], 8.99 µM (inactive); in experiment [4] it was 5.37 µM; in [5] it was 13.9 µM (inactive); in [6], 2.52 µM (inactive). Moreover, the GI50 is 7.91 µM (inactive) in experiment [7]; 14.6 µM (inactive) in experiment [8]; 5.78 µM (inactive) in [9]; 8.77 µM (inactive) in [10]; 9.04 µM (inactive) in experiment [11]; 4.51 µM (inactive) in experiment [12]. The GI50 was 6.14 µM (inactive) in [13], 17.5 µM (inactive) in experiment [14] and 6.93 µM (inactive) in experiment [15].

As to `COc1ccc(C(N)=O)cc1/N=N/N(C)C`, the GI50 in [1] was > 100 µM (inactive); in experiment [2], > 100 µM (inactive); in experiment [3], > 100 µM (inactive); in [4], over 100 µM; in experiment [5], > 100 µM (inactive); in experiment [6], > 100 µM (inactive). Also, the GI50 in experiment [7], in experiment [8], in experiment [9], in [10], in experiment [11] and in experiment [12] was > 100 µM (inactive) in each case. In addition, the GI50 in experiment [13], in experiment [14] and in [15] was > 100 µM (inactive) in each case.

As for `CCOC(=O)C(=O)Nc1ccc(C)c(C)c1`, the GI50 is > 100 µM (inactive) in [1]; > 100 µM (inactive) in experiment [2]; > 100 µM (inactive) in [3]; over 41.2 µM in experiment [4]; > 100 µM (inactive) in [5]; > 100 µM (inactive) in experiment [6]. In addition, the GI50 in experiment [7], in [8], in experiment [9], in experiment [10], in experiment [11] and in [12] was > 100 µM (inactive) each time. Further, the GI50 in [13], in experiment [14] and in [15] was > 100 µM (inactive) in each case.

As to `COc1cc2cc(OC(C)=O)c3cc4c(cc3c2c(OC)c1OC)OCO4`, the GI50 is > 100 µM (inactive) in experiment [1]; > 100 µM (inactive) in experiment [2]; > 100 µM (inactive) in experiment [3]; over 100 µM in experiment [4]; > 100 µM (inactive) in experiment [5]; > 100 µM (inactive) in experiment [6]. Also, the GI50 in [7], in [8], in experiment [9], in [10], in experiment [11] and in experiment [12] was > 100 µM (inactive) throughout. The GI50 in experiment [13], in experiment [14] and in experiment [15] was > 100 µM (inactive) in each case.

Take `CN1CCC(=O)/C(=C/c2ccccc2)C1`: the GI50 was 12.5 µM (inactive) in experiment [1]; 18.5 µM (inactive) in [2]; 8.93 µM (inactive) in experiment [3]; 7.06 µM in experiment [4]; 13.2 µM (inactive) in [5]; 7.74 µM (inactive) in [6]. Further, the GI50 was 16.8 µM (inactive) in experiment [7]; 17.5 µM (inactive) in experiment [8]; 8.95 µM (inactive) in experiment [9]; 17.9 µM (inactive) in experiment [10]; 15.7 µM (inactive) in [11]; 17.7 µM (inactive) in [12]. In addition, the GI50 in [13] is 14.7 µM (inactive); in experiment [14] it was 6.85 µM (inactive); in experiment [15] it was 16.1 µM (inactive).

`O=C(/C=C/c1ccccc1O)c1cccc2ccccc12`: the GI50 in experiment [1] was 58.7 µM (inactive); in experiment [2], > 100 µM (inactive); in [3] it was 18.2 µM (inactive); in [4], 23.7 µM; in experiment [5], > 100 µM (inactive); in experiment [6] it was 21.1 µM (inactive). The GI50 is > 46.3 µM (inactive) in experiment [7]; 60.7 µM (inactive) in experiment [8]; 51.9 µM (inactive) in experiment [9]; 56.8 µM (inactive) in experiment [10]; > 100 µM (inactive) in experiment [11]; 76.4 µM (inactive) in [12]. Moreover, the GI50 was 44.4 µM (inactive) in experiment [13], 48.8 µM (inactive) in [14] and > 100 µM (inactive) in experiment [15].

As to `CC1=C(C(=O)Nc2ccccc2C)C(c2ccc(C3C(C(=O)Nc4ccccc4C)=CNC=C3C(=O)Nc3ccccc3C)cc2)C(C(=O)Nc2ccccc2C)=C(C)N1`, the GI50 in [1] was 15.1 µM (inactive); in [2], 20.7 µM (inactive); in experiment [3], 3.15 µM (inactive); in [4] it was 16.8 µM; in experiment [5], 16.8 µM (inactive); in [6] it was 4.5 µM (inactive). In addition, the GI50 is 17 µM (inactive) in experiment [7]; 19.1 µM (inactive) in experiment [8]; 6.68 µM (inactive) in experiment [9]; 14.7 µM (inactive) in [10]; 21.6 µM (inactive) in experiment [11]; 14.4 µM (inactive) in [12]. For the same compound, the figures for the GI50 in experiment [13], in experiment [14] and in experiment [15] were 14.8 µM (inactive), 19.5 µM (inactive) and 49.7 µM (inactive), respectively.

As for `COC(=O)C1C(=O)CC2CCCCC21` (stereo not drawn), the GI50 is > 100 µM (inactive) in [1]; > 100 µM (inactive) in experiment [2]; > 100 µM (inactive) in [3]; over 100 µM in experiment [4]; > 100 µM (inactive) in experiment [5]; > 100 µM (inactive) in experiment [6]. The GI50 in experiment [7], in [9], in experiment [10], in experiment [12], in [13] and in experiment [14] was > 100 µM (inactive) in each case. Also, the GI50 in experiment [15] was > 100 µM (inactive).

As for `COc1c(C)c(O)c2c(=O)cc(-c3ccccc3)oc2c1C`, the GI50 in experiment [1] was > 100 µM (inactive); in experiment [2], > 100 µM (inactive); in experiment [3] it was > 100 µM (inactive); in experiment [4] it was over 100 µM; in experiment [5] it was > 100 µM (inactive); in experiment [6], > 100 µM (inactive). In addition, the GI50 in experiment [7], in experiment [8], in experiment [9], in experiment [10], in experiment [11] and in [12] was > 100 µM (inactive) each time. For the same compound, the GI50 in experiment [13], in experiment [14] and in experiment [15] was > 100 µM (inactive) in each case.

As to `Clc1ccccc1CN1COc2c(ccc3cccnc23)C1`, the GI50 in [1] is 4.28 µM (inactive); in experiment [2] it was 8.24 µM (inactive); in experiment [3] it was 0.405 µM (active); in [4] it was 2.06 µM; in experiment [5], 2.59 µM (inactive); in experiment [6], 2.22 µM (inactive). The GI50 in experiment [7] was 3.87 µM (inactive); in [8], 1.62 µM (inactive); in experiment [9], 0.404 µM (active); in [10] it was 3.6 µM (inactive); in experiment [11], 7.41 µM (inactive); in experiment [12] it was 3.59 µM (inactive). Further, the GI50 in experiment [13] was 6.93 µM (inactive); in experiment [14], 7.91 µM (inactive); in [15], 10.4 µM (inactive).

For `CC(=O)O[C@H]1CSC[C@@H](OC(C)=O)C1[N+](=O)[O-]` (stereo partly drawn), the GI50 in experiment [1] is 19.2 µM (inactive); in experiment [2] it was > 100 µM (inactive); in [3], 19.5 µM (inactive); in [4] it was 30.1 µM; in experiment [5], 29.6 µM (inactive); in experiment [6] it was 27.8 µM (inactive). For the same compound, the GI50 in experiment [7] is > 100 µM (inactive); in experiment [8], > 100 µM (inactive); in experiment [9], 19.4 µM (inactive); in experiment [10] it was 54.8 µM (inactive); in [11], > 100 µM (inactive); in [12], 43.8 µM (inactive). The results for the GI50 in experiment [13], in [14] and in [15] were > 100 µM (inactive), 65.2 µM (inactive) and > 100 µM (inactive), respectively.

`O=C1OC2(c3ccccc3Oc3ccccc32)c2ccccc21`: the GI50 in experiment [1] was > 100 µM (inactive); in [2], > 100 µM (inactive); in [3], > 100 µM (inactive); in experiment [4], over 100 µM; in [5], > 100 µM (inactive); in experiment [6] it was > 100 µM (inactive). Also, the GI50 in [7] is > 100 µM (inactive); in [8], > 100 µM (inactive); in [9], 69.8 µM (inactive); in experiment [10] it was > 100 µM (inactive); in experiment [11] it was > 100 µM (inactive); in experiment [12], > 100 µM (inactive). For the same compound, the GI50 in [13], in experiment [14] and in experiment [15] was > 100 µM (inactive) in each case.

In the case of `Cc1cccc(C(C)(C)C)c1NC(=O)C(=O)C(c1cnc2ccccc2n1)[N+](=O)[O-]` (stereo not drawn), the GI50 in experiment [1] is > 100 µM (inactive); in [2] it was > 100 µM (inactive); in experiment [3] it was 32.1 µM (inactive); in experiment [4] it was over 100 µM; in [5], > 100 µM (inactive); in experiment [6] it was 58.1 µM (inactive). In addition, the GI50 in [7] is > 100 µM (inactive); in [8] it was > 100 µM (inactive); in experiment [9], 38.5 µM (inactive); in experiment [10] it was > 100 µM (inactive); in [11] it was > 100 µM (inactive); in [12] it was > 100 µM (inactive). Moreover, the GI50 in [13], in [14] and in experiment [15] was > 100 µM (inactive) each time.

The values above are taken from ChEMBL document CHEMBL1201862, “PubChem BioAssay data set” (2004).
